According to the supplement of paper PMC11451515:

What was measured:
Conditions in all cases: 48 h
NOMO1 [1] = assay: AUC of viability dose-response curve (% viability x log10 dose units); higher = less sensitive
Procedure, shortened: (§1)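 Area under the curve was integrated by trapezoidal rule from a log-logistic fit of normalised viability, with curves exceeding full viability scaled and quality-control failures removed. The fit had four parameters over log10 doses. Viability came from CellTiter-Glo One luminescence, normalised per plate to DMSO and cell-free wells, after leukemia cells adapted to each medium (500 or 1000 cells/well, 1536-well plates) were exposed to library compounds in DMSO for 48 h at 37°C. The 11 threefold doses ran from 47 μM to 0.79 nM.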

P12-Ichikawa [2] = assay: as above
Procedure, shortened: as §1

SEM cells [3] = assay: as above
Procedure, shortened: as §1

NOMO1 [4] = assay: cell viability relative to DMSO control; higher = less cytotoxic
Procedure, shortened: (§2)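 Viability was expressed as a per-plate percentage of DMSO wells, with cell-free wells as background. Leukemia cells (NOMO1 or SEM at 500 cells/well, P12-Ichikawa at 1000 cells/well) were adapted for at least four passages in each medium and seeded in 1536-well plates (5 μl). Library compounds in DMSO were pin-dosed over an 11-point threefold series from 47 μM to 0.79 nM, and CellTiter-Glo One luminescence was read after 48 h at 37°C.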

P12-Ichikawa [5] = assay: as above
Procedure, shortened: as §2

SEM cells [6] = assay: as above
Procedure, shortened: as §2

CC[C@H](/C=C/[C@@H](C)[C@H]1CC[C@H]2[C@@H]3CC=C4C[C@@H](O)CC[C@]4(C)[C@H]3CC[C@]12C)C(C)C
AUC of viability dose-response curve
Conditions	NOMO1 [1]	P12-Ichikawa [2]	SEM cells [3]
HPLM + 10% dialyzed FBS	427	456	438
RPMI 5 mM glucose + 10% FBS	434	449	458
RPMI 5 mM glucose + 10% dialyzed FBS	421	429	463

cell viability [%]
Conditions	NOMO1 [4]	P12-Ichikawa [5]	SEM cells [6]
HPLM + 10% dialyzed FBS, 0.000781 µM	104	100	100
HPLM + 10% dialyzed FBS, 0.00234 µM	112	109	77.3
HPLM + 10% dialyzed FBS, 0.00702 µM	110	94.3	94.8
HPLM + 10% dialyzed FBS, 0.0211 µM	98.9	99.3	94.8
HPLM + 10% dialyzed FBS, 0.0632 µM	104	104	86.4
HPLM + 10% dialyzed FBS, 0.19 µM	102	101	108
HPLM + 10% dialyzed FBS, 0.569 µM	97.3	99.5	81.7
HPLM + 10% dialyzed FBS, 1.71 µM	96.7	93.2	100
HPLM + 10% dialyzed FBS, 5.12 µM	80.6	87.7	95.3
HPLM + 10% dialyzed FBS, 15.4 µM	73.7	85.9	79.1
HPLM + 10% dialyzed FBS, 46.1 µM	58.2	87.5	89.3
RPMI 5 mM glucose + 10% FBS, 0.000781 µM	89.3	92.9	102
RPMI 5 mM glucose + 10% FBS, 0.00234 µM	94.3	94.3	83.8
RPMI 5 mM glucose + 10% FBS, 0.00702 µM	101	97.1	103
RPMI 5 mM glucose + 10% FBS, 0.0211 µM	105	95.9	95.2
RPMI 5 mM glucose + 10% FBS, 0.0632 µM	92.9	105	101
RPMI 5 mM glucose + 10% FBS, 0.19 µM	90.7	96.3	96.8
RPMI 5 mM glucose + 10% FBS, 0.569 µM	88.8	94.9	93.3
RPMI 5 mM glucose + 10% FBS, 1.71 µM	92.8	91.3	104
RPMI 5 mM glucose + 10% FBS, 5.12 µM	81.1	89.6	105
RPMI 5 mM glucose + 10% FBS, 15.4 µM	81.3	83.9	87.4
RPMI 5 mM glucose + 10% FBS, 46.1 µM	78.7	93.7	84.2
RPMI 5 mM glucose + 10% dialyzed FBS, 0.000781 µM	98.2	92.7	98
RPMI 5 mM glucose + 10% dialyzed FBS, 0.00234 µM	89.4	95.2	92.7
RPMI 5 mM glucose + 10% dialyzed FBS, 0.00702 µM	91.1	93	93.3
RPMI 5 mM glucose + 10% dialyzed FBS, 0.0211 µM	84.5	87.3	104
RPMI 5 mM glucose + 10% dialyzed FBS, 0.0632 µM	96.1	91.8	111
RPMI 5 mM glucose + 10% dialyzed FBS, 0.19 µM	89.5	94.6	90.6
RPMI 5 mM glucose + 10% dialyzed FBS, 0.569 µM	86	88.4	93.5
RPMI 5 mM glucose + 10% dialyzed FBS, 1.71 µM	95.1	87.8	108
RPMI 5 mM glucose + 10% dialyzed FBS, 5.12 µM	94.5	87	94.1
RPMI 5 mM glucose + 10% dialyzed FBS, 15.4 µM	68.3	85.2	87.6
RPMI 5 mM glucose + 10% dialyzed FBS, 46.1 µM	69.6	86.6	93.5

O=C(Nc1cc(Cl)cc2c1[nH]c1cnccc12)c1cccnc1
AUC of viability dose-response curve
Conditions	NOMO1 [1]	P12-Ichikawa [2]	SEM cells [3]
HPLM + 10% dialyzed FBS	467	471	468
RPMI 5 mM glucose + 10% FBS	477	461	452
RPMI 5 mM glucose + 10% dialyzed FBS	471	457	437

cell viability [%]
Conditions	NOMO1 [4]	P12-Ichikawa [5]	SEM cells [6]
HPLM + 10% dialyzed FBS, 0.000781 µM	–	116	121
HPLM + 10% dialyzed FBS, 0.00234 µM	–	121	121
HPLM + 10% dialyzed FBS, 0.00702 µM	–	123	116
HPLM + 10% dialyzed FBS, 0.0211 µM	–	121	134
HPLM + 10% dialyzed FBS, 0.0632 µM	–	121	124
HPLM + 10% dialyzed FBS, 0.19 µM	–	122	122
HPLM + 10% dialyzed FBS, 0.569 µM	–	127	118
HPLM + 10% dialyzed FBS, 1.71 µM	–	115	141
HPLM + 10% dialyzed FBS, 5.12 µM	–	121	133
HPLM + 10% dialyzed FBS, 15.4 µM	–	113	127
HPLM + 10% dialyzed FBS, 46.1 µM	–	106	113
RPMI 5 mM glucose + 10% FBS, 0.000781 µM	–	124	109
RPMI 5 mM glucose + 10% FBS, 0.00234 µM	–	118	108
RPMI 5 mM glucose + 10% FBS, 0.00702 µM	–	118	96.3
RPMI 5 mM glucose + 10% FBS, 0.0211 µM	–	129	117
RPMI 5 mM glucose + 10% FBS, 0.0632 µM	–	119	126
RPMI 5 mM glucose + 10% FBS, 0.19 µM	–	116	125
RPMI 5 mM glucose + 10% FBS, 0.569 µM	–	117	128
RPMI 5 mM glucose + 10% FBS, 1.71 µM	–	118	129
RPMI 5 mM glucose + 10% FBS, 5.12 µM	–	114	138
RPMI 5 mM glucose + 10% FBS, 15.4 µM	–	114	121
RPMI 5 mM glucose + 10% FBS, 46.1 µM	–	109	124
RPMI 5 mM glucose + 10% dialyzed FBS, 0.000781 µM	118	–	113
RPMI 5 mM glucose + 10% dialyzed FBS, 0.00234 µM	114	–	107
RPMI 5 mM glucose + 10% dialyzed FBS, 0.00702 µM	124	–	109
RPMI 5 mM glucose + 10% dialyzed FBS, 0.0211 µM	110	–	108
RPMI 5 mM glucose + 10% dialyzed FBS, 0.0632 µM	110	–	100
RPMI 5 mM glucose + 10% dialyzed FBS, 0.19 µM	124	–	98.5
RPMI 5 mM glucose + 10% dialyzed FBS, 0.569 µM	131	–	116
RPMI 5 mM glucose + 10% dialyzed FBS, 1.71 µM	123	–	125
RPMI 5 mM glucose + 10% dialyzed FBS, 5.12 µM	117	–	123
RPMI 5 mM glucose + 10% dialyzed FBS, 15.4 µM	109	–	128
RPMI 5 mM glucose + 10% dialyzed FBS, 46.1 µM	109	–	117

C[C@H]1C[C@@H]2[C@H](CC[C@@]3(C)[C@H]2CC[C@]3(OC(C)=O)C(C)=O)[C@@]\4(C)CCC(=O)\C=C14
AUC of viability dose-response curve
Conditions	NOMO1 [1]	P12-Ichikawa [2]	SEM cells [3]
HPLM + 10% dialyzed FBS	471	464	417
RPMI 5 mM glucose + 10% FBS	472	446	433
RPMI 5 mM glucose + 10% dialyzed FBS	458	442	425

cell viability [%]
Conditions	NOMO1 [4]	P12-Ichikawa [5]	SEM cells [6]
HPLM + 10% dialyzed FBS, 0.000781 µM	95.2	99.8	64.9
HPLM + 10% dialyzed FBS, 0.00234 µM	112	105	101
HPLM + 10% dialyzed FBS, 0.00702 µM	116	111	79.8
HPLM + 10% dialyzed FBS, 0.0211 µM	112	107	87
HPLM + 10% dialyzed FBS, 0.0632 µM	119	122	88.5
HPLM + 10% dialyzed FBS, 0.19 µM	110	115	85.1
HPLM + 10% dialyzed FBS, 0.569 µM	125	114	92.9
HPLM + 10% dialyzed FBS, 1.71 µM	123	107	87.6
HPLM + 10% dialyzed FBS, 5.12 µM	120	98.7	85.3
HPLM + 10% dialyzed FBS, 15.4 µM	81.3	95.5	88.9
HPLM + 10% dialyzed FBS, 46.1 µM	118	107	101
RPMI 5 mM glucose + 10% FBS, 0.000781 µM	103	112	75
RPMI 5 mM glucose + 10% FBS, 0.00234 µM	103	112	89.9
RPMI 5 mM glucose + 10% FBS, 0.00702 µM	103	123	97.5
RPMI 5 mM glucose + 10% FBS, 0.0211 µM	101	108	92.2
RPMI 5 mM glucose + 10% FBS, 0.0632 µM	99.5	113	105
RPMI 5 mM glucose + 10% FBS, 0.19 µM	107	113	96.2
RPMI 5 mM glucose + 10% FBS, 0.569 µM	128	110	84.5
RPMI 5 mM glucose + 10% FBS, 1.71 µM	117	101	96.7
RPMI 5 mM glucose + 10% FBS, 5.12 µM	101	94.3	91.6
RPMI 5 mM glucose + 10% FBS, 15.4 µM	95.9	80.3	80.8
RPMI 5 mM glucose + 10% FBS, 46.1 µM	103	96.3	85.9
RPMI 5 mM glucose + 10% dialyzed FBS, 0.000781 µM	86.7	101	75.4
RPMI 5 mM glucose + 10% dialyzed FBS, 0.00234 µM	98.7	113	96
RPMI 5 mM glucose + 10% dialyzed FBS, 0.00702 µM	109	102	77.3
RPMI 5 mM glucose + 10% dialyzed FBS, 0.0211 µM	88.5	107	105
RPMI 5 mM glucose + 10% dialyzed FBS, 0.0632 µM	101	120	101
RPMI 5 mM glucose + 10% dialyzed FBS, 0.19 µM	98.8	103	94.2
RPMI 5 mM glucose + 10% dialyzed FBS, 0.569 µM	104	96.3	78.7
RPMI 5 mM glucose + 10% dialyzed FBS, 1.71 µM	98	93.7	94.1
RPMI 5 mM glucose + 10% dialyzed FBS, 5.12 µM	103	96	88
RPMI 5 mM glucose + 10% dialyzed FBS, 15.4 µM	88.7	80.1	80.1
RPMI 5 mM glucose + 10% dialyzed FBS, 46.1 µM	112	88.4	88.9
